We go through twelve compounds from patent publication US12252481B2, “Anti-viral compounds” (Aligos Therapeutics, Inc., priority 2021, dated 2025).

Molecules are shown by their SMILES.

For one assay, the target named is T1, SARS-Cov-2 3CLpro (Severe acute respiratory syndrome coronavirus 2, UniProt P0DTD1).
T1 construct: 3CLpro and HRV3C was added using a Multidrop Combi
The experiment in a line: biochemical. The following applies: 3CLpro, 30 mins preincubation, SAMDI-MS; read-out: SARS-Cov-2 IC50 (class).

The next assay deals with T2, HRV3C (Human rhinovirus 14, UniProt P03303).
T2 construct: 3CLpro and HRV3C was added using a Multidrop Combi
The experiment in a line: biochemical. Also noted: species or system HRV. To be noted: HRV3C, 30 mins preincubation, SAMDI-MS; read-out: HRV IC50 (bound).

Assay [1] deals with human beta-coronavirus OC43. The experiment in a line: OC43 coronavirus antiviral assay in HeLa cells (cytopathic effect, cell-titer-glo). It counts as cell-based. To be noted: Betacoronavirus 1, OC43, HeLa, 144 h, 6 days at 33° C., read-out: EC50 (class). A general note: Damage to the host cells serves as the signal in cytopathic effect assays.
The test system of assay [2] is B.1.1.7 lineage SARS-CoV-2. Put plainly: microbe, parasite or virus in culture. To be noted: Severe acute respiratory syndrome coronavirus 2, 96 h; read-out: A549-dual_ACE2_TMPRSS2 (EC50). It counts as cell-based.

T2 sequence (P03303 1538-1719): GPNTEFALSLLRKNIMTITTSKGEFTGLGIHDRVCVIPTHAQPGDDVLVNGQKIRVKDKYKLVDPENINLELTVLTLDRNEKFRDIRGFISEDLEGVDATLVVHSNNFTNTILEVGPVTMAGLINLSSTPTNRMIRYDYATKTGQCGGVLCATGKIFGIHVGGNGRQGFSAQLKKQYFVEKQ

Take `CC(C)(C)[C@H](NC(=O)C(F)(F)C(F)(F)F)C(=O)N1C[C@H]2[C@@H]([C@H]1C(=O)N[C@H](C#N)CC1CC3(COC3)NC1=O)[C@H]1C=C[C@@H]2C1` (stereo partly drawn) [Compound 107, (1R,2S,3S,6R,7S)—N-[(1S)-1-cyano-2-{6-oxo-2-oxa-5-azaspiro[3.4]octan-7-yl}ethyl]-4-[(2S)-3,3-dimethyl-2-(2,2,3,3,3-pentafluoropropanamido)butanoyl]-4-azatricyclo[5.2.1.0^{2,6}]dec-8-ene-3-carboxamide]: the figures for the IC50 on SARS-Cov-2 3CLpro and on HRV3C were < 0.02 µM and > 0.5 µM, respectively. For the same compound, the EC50 in assay [1] and in assay [2] was < 0.1 µM in each case.
As to `CC(C)(C)[C@H](NC(=O)C(F)(F)F)C(=O)N1C[C@H]2[C@@H]([C@H]1C(=O)N[C@H](C#N)C[C@@H]1Oc3cccnc3NC1=O)[C@H]1C=C[C@@H]2C1` [Compound 112, (1S,3aR,4S,7R,7aS)-N-((S)-1-cyano-2-((S)-3-oxo-3,4-dihydro-2H-pyrido[3,2-b][1,4]oxazin-2-yl)ethyl)-2-((S)-3,3-dimethyl-2-(2,2,2-trifluoroacetamido)butanoyl)-2,3,3a,4,7,7a-hexahydro-1H-4,7-methanoisoindole-1-carboxamide], the results for the IC50 at SARS-Cov-2 3CLpro and on HRV3C were < 0.02 µM and > 0.5 µM, respectively. Further, the EC50 – broadly, the concentration giving half of the maximal effect – is 0.1 to 1 µM in assay [1] and < 0.1 µM in assay [2].
Consider `CC(C)(C)[C@H](NC(=O)C(F)(F)F)C(=O)N1C[C@@H]2[C@H]3C[C@H](C[C@@H]3F)[C@@H]2[C@H]1C(=O)N[C@H](C#N)C[C@@H]1CCNC1=O` [Example 96], for which the IC50 – broadly, the concentration that inhibits the measured activity by half – is 0.02 to 0.2 µM at SARS-Cov-2 3CLpro and > 0.5 µM on HRV3C. In addition, the EC50 in assay [1] and in assay [2] was 0.1 to 1 µM each time.
In the case of `CC(C)(C)[C@H](NC(=O)C(F)(F)F)C(=O)N1C[C@@H]2[C@H]3C[C@H](C[C@@H]3F)[C@@H]2[C@H]1C(=O)N[C@H](C#N)C[C@@H]1OCCNC1=O` [Compound 119], the IC50 at SARS-Cov-2 3CLpro was 0.02 to 0.2 µM; at HRV3C, > 0.5 µM. Moreover, the EC50 in assay [1] and in assay [2] was 0.1 to 1 µM in each case.
On to `C[C@H]1[C@H]2[C@@H]([C@@H](C(=O)N[C@H](C#N)C[C@@H]3CCNC3=O)N1C(=O)[C@@H](NC(=O)C(F)(F)F)C(C)(C)C)[C@H]1C=C[C@@H]2C1` [Example 93, (1R,2S,3S,5S,6R,7S)—N-[(1S)-1-cyano-2-[(3S)-2-oxopyrrolidin-3-yl]ethyl]-4-[(2S)-3,3-dimethyl-2-(2,2,2-trifluoroacetamido)butanoyl]-5-methyl-4-azatricyclo[5.2.1.0^{2,6}]dec-8-ene-3-carboxamide], for which the IC50 at SARS-Cov-2 3CLpro was < 0.02 µM; at HRV3C, > 0.5 µM. Further, the EC50 in assay [1] and in assay [2] was < 0.1 µM each time.
In the case of `CC(C)(C)[C@H](NC(=O)C(F)(F)C(F)(F)F)C(=O)N1C[C@@H]2[C@H]3C[C@@H]([C@@H]2[C@H]1C(=O)N[C@H](C#N)C[C@@H]1OCCNC1=O)[C@H](F)C3` [Compound 118, (1S,2R,3S,6R,7S,9R)—N-[(1S)-1-cyano-2-[(2S)-3-oxomorpholin-2-yl]ethyl]-4-[(2S)-3,3-dimethyl-2-(2,2,3,3,3-pentafluoropropanamido)butanoyl]-9-fluoro-4-azatricyclo[5.2.1.0^{2,6}]decane-3-carboxamide], the concentration for half-maximal inhibition (IC50) on SARS-Cov-2 3CLpro is < 0.02 µM; at HRV3C, > 0.5 µM. Besides, the EC50 in assay [1] and in assay [2] was < 0.1 µM throughout.
For the compound `CC(C)(C)[C@H](NC(=O)C(F)(F)F)C(=O)N1C[C@@H]2[C@@H]3C=C[C@@H]([C@H]4C[C@@H]34)[C@@H]2C1C(=O)N[C@H](C#N)C[C@@H]1CCNC1=O` (stereo partly drawn) [Example 88, (3aR,4R,4aR,5aS,6S,6aS)-N-((S)-1-cyano-2-((S)-2-oxopyrrolidin-3-yl)ethyl)-2-((S)-3,3-dimethyl-2-(2,2,2-trifluoroacetamido)butanoyl)-1,2,3,3a,4,4a,5,5a,6,6a-decahydro-4,6-ethenocyclopropa[f]isoindole-1-carboxamide], the IC50 on SARS-Cov-2 3CLpro was < 0.02 µM; at HRV3C, > 10 µM. The EC50 in assay [1] and in assay [2] was 0.1 to 1 µM each time.
Consider `CC(C)(C)[C@H](NC(=O)C(F)(F)F)C(=O)N1C[C@H]2[C@@H]([C@H]1C(=O)N[C@H](C#N)C[C@@H]1OCCCNC1=O)[C@H]1C=C[C@@H]2C1` [Compound 121, (1R,2S,3S,6R,7S)—N-[(1S)-1-cyano-2-[(2S)-3-oxo-1,4-oxazepan-2-yl]ethyl]-4-[(2S)-3,3-dimethyl-2-(2,2,2-trifluoroacetamido)butanoyl]-4-azatricyclo[5.2.1.0^{2,6}]dec-8-ene-3-carboxamide], for which the IC50 on SARS-Cov-2 3CLpro is < 0.02 µM; on HRV3C, > 0.5 µM. Moreover, the EC50 in assay [1] and in assay [2] was < 0.1 µM throughout.
Consider `CC(C)(C)[C@H](NC(=O)C(F)(F)Cl)C(=O)N1C[C@H]2[C@@H]([C@H]1C(=O)N[C@H](C#N)C[C@@H]1OCCNC1=O)[C@H]1C=C[C@@H]2C1` [Compound 116], for which the IC50 at SARS-Cov-2 3CLpro was < 0.02 µM; on HRV3C it was > 0.5 µM. The EC50 in assay [1] and in assay [2] was < 0.1 µM each time.
Regarding `COC1(C(=O)N[C@H](C(=O)N2C[C@H]3[C@@H]([C@H]2C(=O)N[C@H](C#N)C[C@@H]2CCNC2=O)[C@H]2C=C[C@@H]3C2)C(C)(C)C)CCC1` [Compound 127], the values for the IC50 at SARS-Cov-2 3CLpro and at HRV3C were 0.02 to 0.2 µM and > 0.5 µM, respectively. The EC50 was 0.1 to 1 µM in assay [1] and < 0.1 µM in assay [2].
In the same order, the values of `CC1(C)NC(=O)[C@H](C[C@@H](C#N)NC(=O)[C@@H]2[C@@H]3[C@H](CN2C(=O)[C@@H](NC(=O)C(F)(F)F)C(C)(C)C)[C@@H]2C=C[C@H]3C2)O1` [Compound 105, (1S,3aR,4S,7R,7aS)-N-((S)-1-cyano-2-((S)-2,2-dimethyl-4-oxooxazolidin-5-yl)ethyl)-2-((S)-3,3-dimethyl-2-(2,2,2-trifluoroacetamido)butanoyl)-2,3,3a,4,7,7a-hexahydro-1H-4,7-methanoisoindole-1-carboxamide] are 0.02 to 0.2 µM, > 0.5 µM, 0.1 to 1 µM and < 0.1 µM.
In the case of `C[C@@H](OC(F)F)[C@H](NC(=O)C(F)(F)F)C(=O)N1C[C@H]2[C@@H]([C@H]1C(=O)N[C@H](C#N)C[C@@H]1CCNC1=O)[C@H]1C=C[C@@H]2C1` [Example 98, (1S,3aR,4S,7R,7aS)-N-((S)-1-cyano-2-((S)-2-oxopyrrolidin-3-yl)ethyl)-2-(O-(difluoromethyl)-N-(2,2,2-trifluoroacetyl)-L-threonyl)-2,3,3a,4,7,7a-hexahydro-1H-4,7-methanoisoindole-1-carboxamide], the IC50 was < 0.02 µM at SARS-Cov-2 3CLpro and > 0.5 µM at HRV3C. Moreover, the EC50 in assay [1] and in assay [2] was < 0.1 µM throughout.
